According to PMC11743413 (Bioresources and Bioprocessing, 2025):

Target: T1, SerE (Corynebacterium glutamicum, UniProt Q8NSR3)
T1 construct: gene Cgl0605
Conditions: L-proline released from Pro-Gly in the cells; acid-ninhydrin assay

T1 sequence (Q8NSR3 1-307): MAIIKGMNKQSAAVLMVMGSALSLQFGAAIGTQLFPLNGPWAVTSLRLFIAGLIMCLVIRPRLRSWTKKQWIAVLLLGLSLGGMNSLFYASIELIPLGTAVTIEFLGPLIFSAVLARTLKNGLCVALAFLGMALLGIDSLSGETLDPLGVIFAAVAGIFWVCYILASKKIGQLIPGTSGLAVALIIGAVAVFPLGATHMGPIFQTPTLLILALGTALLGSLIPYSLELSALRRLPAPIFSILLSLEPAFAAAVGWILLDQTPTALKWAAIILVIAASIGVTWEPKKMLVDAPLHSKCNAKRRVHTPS

amino acid export assay after Pro-Gly dipeptide addition; serE deletion versus o: SerE is indeed as an L-proline exporter
SMILES: O=C(O)[C@@H]1CCCN1 [L-proline]
